From patent publication US11999758B2, “Inhibitors of the YAP/TAZ-TEAD interaction and their use in the treatment of cancer” (INVENTIVA, priority 2018, dated 2024) come the findings set out here.

This assay deals with T1, YAP-TEAD interaction (Homo sapiens, UniProt P28347).
T1 construct: expressed in transfected cells; host or cells: HEK293 GripTite 293 MSR (Invitrogen R795-07)
In words: Cell-based TEAD-GAL4 transactivation assay (luciferase reporter). To be noted: HEK293 cells transfected with TEAD1-Gal4, YAP mutant (S127A, S397A) and luciferase reporter, compounds 0.1 μM to 30 μM; for Emax: HEK293, 24 h, read-out: TEAD-GAL4 Transactivation activity Max Act; for IC50 / TEAD-GAL4 Transactivation activity Max Act: 24 h. How it is done: To identify inhibitors of YAP-TEAD interaction, a transient transactivation assay was carried out on HEK293 cell line (HEK293 GripTite™ 293 MSR (Invitrogen R795-07)) using plasmids containing the full length TEAD1 sequences, the full length YAP mutant (S127A, S397A) and a luciferase gene reporter. All expression constructs were performed into a pSG5 backbone plasmid in which the SV40 promoter was replaced by the CMV promoter. The TEAD1 construct was prepared by cloning the full-length human TEAD1 cDNA in fusion with the Gal4 DNA Binding Domain (AA 1-148) into pSG5_CMV to create the TEAD1 (FL)_hum_pSG5Gal4_CMV. The full-length YAP mutant (S127A, S397A) was also cloned into pSG5_CMV to create the YAP (FL)_hum_pSG5_mutS127A_S397A_CMV. The reporter plasmid GAL4(5×RE)_TK(−105/+56)_pGL3-Basic contains 5 copies of the GAL4 responsive element (5′-TCGGAGGACAGTACTCC-3′) upstream of the thymidine kinase (TK) promoter (−105/+56) inserted in a pGL3-Basic vector. To evaluate the selectivity of our compounds in blocking the YAP-TEAD interaction, a counter-screening protein-protein interaction transactivation assay was also established. Briefly, two other expression plasmids, the pBD-P53 which expresses the P53 (AA 72-390) in fusion with Gal4 and the pAD-SV40T which expresses the SV40 large T antigen (AA 84-708,AgT), were created. HEK293 cells were seeded at 5×10^4 cells/well in 96 well plates (assay plates) in DMEM medium containing 4.5 g/L D-glucose, 10% high inactivated (HI) fetal bovine serum 1% Glutamax, 1% non-essential amino acid and 1% sodium pyruvate and 0.5% penicillin/streptomycin at 37° C. in a humidified atmosphere of 8% CO2. After 24 h, transfections were performed using Jet-PEI as transfectant (101B-010 Polyplus Transfection), according to the instructions of the manufacturer (N/P=10) and a ratio YAP/TEAD=10 (per well: 50 ng of YAP(FL), 5 ng of TEAD(FL) and 50 ng of reporter plasmid). Six hours after cell transfection, the plates (‘assay plate’) were washed with 100 μl PBS per well and cells were treated with compounds in semi-log from 0.1 μM to 30 μM or DMSO 0.5% as control in DMEM, 4.5 g/L D-Glucose without phenol red, 0.3% BSA, 1% glutamax, 1% NEAA, 1% sodium pyruvate. 24 h later, the luciferase activity was determined after addition of 100 μl of Steady Glo™ luciferase assay system (Promega E2550) according to the manufacturer's directions. Luciferase activity in cell extracts was measured by reading luminescence using the Envision device.
The cellular response was determined by fitting the concentration response curves using a 3-parameter curve fit equation and determining the concentration that inhibited the luciferase activity by 50%.
On the technique in general: In a reporter assay the amount or activity of a reporter protein is the signal.

T1 sequence (P28347 whole entry): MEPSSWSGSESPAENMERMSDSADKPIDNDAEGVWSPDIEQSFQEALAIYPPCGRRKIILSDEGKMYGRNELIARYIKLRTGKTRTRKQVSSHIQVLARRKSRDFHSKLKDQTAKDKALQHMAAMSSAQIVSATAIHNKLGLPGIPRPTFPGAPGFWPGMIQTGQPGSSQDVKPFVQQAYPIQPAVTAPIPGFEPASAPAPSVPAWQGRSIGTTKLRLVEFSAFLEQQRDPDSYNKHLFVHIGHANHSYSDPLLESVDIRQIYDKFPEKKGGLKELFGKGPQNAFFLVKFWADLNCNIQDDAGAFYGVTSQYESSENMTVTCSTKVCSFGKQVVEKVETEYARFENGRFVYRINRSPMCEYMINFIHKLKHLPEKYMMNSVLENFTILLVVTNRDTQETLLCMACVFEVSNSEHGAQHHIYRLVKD

For the compound `COCc1csc2c(N(C)/N=C/c3ccc4c(c3)COB4O)ncnc12` [Ex126, N-[(E)-(1-hydroxy-3H-2,1-benzoxaborol-5-yl)methyleneamino]-7-(methoxymethyl)-N-methyl-thieno[3,2-d]pyrimidin-4-amine], the Emax stood at 83% and the IC50 was 700 nM.
Taken in the same sequence, the figures for `CN1CCc2c1ncnc2N(C)/N=C/c1ccc2c(c1)COB2O` [Ex106, N-[(E)-(1-hydroxy-3H-2,1-benzoxaborol-5-yl)methyleneamino]-N,7-dimethyl-5,6-dihydropyrrolo[2,3-d]pyrimidin-4-amine] were 83% and 1060 nM.
Take `CN(/N=C/c1ccc2c(c1)COB2O)c1ncnc2c1CCO2` [Ex101, N-[(E)-(1-hydroxy-3H-2,1-benzoxaborol-5-yl)methyleneamino]-N-methyl-5,6-dihydrofuro[2,3-d]pyrimidin-4-amine]: the Emax was 94% and it took 900 nM to reach half-maximal inhibition (IC50).
`CCN(/N=C/c1ccc2c(c1)COB2O)c1ncnc2c3c(sc12)CCCC3` [Ex91, N-ethyl-N-[(E)-(1-hydroxy-3H-2,1-benzoxaborol-5-yl)methyleneamino]-6,7,8,9-tetrahydrobenzothiopheno[3,2-d]pyrimidin-4-amine]: the Emax was 85% and the IC50 was 640 nM.
As for `COc1cc(OC)c2ncnc(N(CC(C)C)/N=C/c3ccc(B(O)O)c(OC)c3)c2c1` [Ex 17, [4-[(E)-[(6,8-dimethoxyquinazolin-4-yl)-isobutyl-hydrazono]methyl]-2-methoxyphenyl]boronic acid], the Emax is 98% and the midpoint of inhibition, the IC50, lay at 7740 nM.
`COc1cc(OC)c2c(c1)C(N(CC(C)C)/N=C/c1ccc(B(O)O)c(Cl)c1)=NS2(=O)=O` [Ex 15, [2-chloro-4-[(E)-[(5,7-dimethoxy-1,1-dioxo-1,2-benzothiazol-3-yl)-isobutyl-hydrazono]methyl]phenyl]boronic acid]: the Emax was determined as 95%.
As for `COc1cc(/C=N/N(C)c2ncnc3c(OC)cccc23)ccc1B(O)O` [Ex 22, [2-methoxy-4-[(E)-[(8-methoxyquinazolin-4-yl)-methyl-hydrazono]-methyl]phenyl]boronic acid], the Emax turned out to be 97% and half-maximal inhibition (IC50) was put at 2570 nM.
As for `CC(C)CN(/N=C/c1ccc2c(c1)CCOB2O)C1=NS(=O)(=O)c2ccccc21` [Ex 46, N-[(E)-(1-hydroxy-3,4-dihydro-2,1-benzoxaborinin-6-yl)methyleneamino]-N-isobutyl-1,1-dioxo-1,2-benzothiazol-3-amine], the Emax was 72%.
For the compound `COc1cc(/C=N/N(CC(C)C)c2ncnc3cc(F)ccc23)ccc1B(O)O` [Ex 18, [4-[(E)-[(7-fluoroquinazolin-4-yl)-isobutyl-hydrazono]methyl]-2-methoxyphenyl] boronic acid], the Emax is 80% and the IC50 came to 2180 nM.
As for `Cc1csc2c(N3N=C(c4ccc5c(c4)COB5O)CCC3C)ncnc12` (single isomer, unassigned; (-)) [Ex120, (−) 4-[6-(1-hydroxy-3H-2,1-benzoxaborol-5-yl)-3-methyl-4,5-dihydro-3H-pyridazin-2-yl]-7-methyl-thieno[3,2-d]pyrimidine], the IC50 worked out at 500 nM and the “TEAD-GAL4 Transactivation activity Max Act” value was 84%.
`COc1cc(/C=N/N(CC(C)C)c2ncnc3c(C)csc23)ccc1B(O)O` [Ex67, [4-[(E)-[isobutyl-(7-methylthieno[3,2-d]pyrimidin-4-yl)hydrazono]methyl]-2-methoxy-phenyl]boronic acid]: the Emax is 89% and the IC50 stood at 3820 nM.
Taken in the same sequence, the figures for `COc1cc(C2=NN(C3=NS(=O)(=O)c4ccccc43)CC(C)O2)ccc1B(O)O` (stereo not drawn) [Ex 58, [4-[4-(1,1-dioxo-1,2-benzothiazol-3-yl)-6-methyl-5,6-dihydro-1,3,4-oxadiazin-2-yl]-2-methoxy-phenyl]boronic acid] were 81% and 3240 nM.
Regarding `CCN(/N=C/c1ccc2c(c1)COB2O)c1nc(C)nc2c(C)csc12` [Ex88, N-ethyl-N-[(E)-(1-hydroxy-3H-2,1-benzoxaborol-5-yl)methyleneamino]-2,7-dimethyl-thieno[3,2-d]pyrimidin-4-amine], the Emax worked out at 80% and inhibition was half-maximal at 630 nM (IC50).
For `CC1OB(O)c2ccc(/C=N/N(C)C3=NS(=O)(=O)c4ccccc43)cc21` (stereo not drawn) [Ex 50, N-[(E)-(1-hydroxy-3-methyl-3H-2,1-benzoxaborol-5-yl)methyleneamino]-N-methyl-1,1-dioxo-1,2-benzothiazol-3-amine], the Emax came to 81% and inhibition was half-maximal at 5130 nM (IC50).
Regarding `CCN(/N=C/c1ccc2c(c1)COB2O)c1ncnc2[nH]ncc12` [Ex86, N-ethyl-N-[(E)-(1-hydroxy-3H-2,1-benzoxaborol-5-yl)methyleneamino]-1H-pyrazolo[3,4-d]pyrimidin-4-amine], the Emax was 81% and the IC50 was 650 nM.
For the compound `COc1cc(/C=N/N(CC(C)C)C2=NS(=O)(=O)c3ccccc32)cc2c1B(O)OC2` [Ex 48, N-[(E)-(1-hydroxy-7-methoxy-3H-2,1-benzoxaborol-5-yl)methyleneamino]-N-isobutyl-1,1-dioxo-1,2-benzothiazol-3-amine], the Emax was 77%.
In the case of `COc1cc(C2=NN(c3ncnc4c(OC)cccc34)C(C)CC2)ccc1B(O)O` (single isomer, unassigned; isomer 2) [Ex125, [2-methoxy-4-[2-(8-methoxyquinazolin-4-yl)-3-methyl-4,5-dihydro-3H-pyridazin-6-yl]phenyl]boronic acid (isomer 2)], the midpoint of inhibition, the IC50, lay at 3520 nM and the “TEAD-GAL4 Transactivation activity Max Act” value turned out to be 86%.
In the case of `COc1ccc2ncnc(N(CC(C)C)/N=C/c3ccc(B(O)O)c(OC)c3)c2c1` [Ex 19, [4-[(E)-[isobutyl-(6-methoxyquinazolin-4-yl)hydrazono]methyl]-2-methoxyphenyl] boronic acid], the Emax stood at 97% and 3360 nM corresponded to half-maximal inhibition (IC50).
Take `CCN(/N=C/c1ccc(B(O)O)c(OC)c1)C1=NS(=O)(=O)c2ccccc21` [Ex 4, [4-[(E)-[(1,1-dioxo-1,2-benzothiazol-3-yl)-ethyl-hydrazono]methyl]-2-methoxy-phenyl] boronic acid]: the Emax came out at 76% and the IC50 turned out to be 6160 nM.
Taken in the same sequence, the figures for `COCC1CC(n2c(=O)[nH]c3c(N(C)/N=C/c4ccc5c(c4)COB5O)ncnc32)C1` (stereo not drawn) [Ex108, 6-[[(E)-(1-hydroxy-3H-2,1-benzoxaborol-5-yl)methyleneamino]-methyl-amino]-9-[3-(methoxymethyl)cyclobutyl]-7H-purin-8-one] were 82% and 2590 nM.
In the same order, the values of `CCN(/N=C/c1ccc2c(c1)COB2O)c1ncnc2c1cnn2C` [Ex 41, N-ethyl-N-[(E)-(1-hydroxy-3H-2,1-benzoxaborol-5-yl)methyleneamino]-1-methyl-pyrazolo[3,4-d]pyrimidin-4-amine] are 83% and 570 nM.
Consider `CC1CCC(c2ccc3c(c2)COB3O)=NN1c1ncnc2ccsc12` (stereo not drawn) [Ex121, 4-[6-(1-hydroxy-3H-2,1-benzoxaborol-5-yl)-3-methyl-4,5-dihydro-3H-pyridazin-2-yl]thieno[3,2-d]pyrimidine], for which the Emax was determined as 80% and the IC50 is 720 nM.
Taken in the same sequence, the figures for `CCN(/N=C/c1ccc2c(c1)COB2O)c1ncnc2c1ccn2C` [Ex 44, N-ethyl-N-[(E)-(1-hydroxy-3H-2,1-benzoxaborol-5-yl)methyleneamino]-7-methyl-pyrrolo[2,3-d]pyrimidin-4-amine] were 78% and 920 nM.
For `CN(/N=C/c1ccc2c(c1)COB2O)c1ncnc2c(-c3ccccc3)csc12` [Ex102, N-[(E)-(1-hydroxy-3H-2,1-benzoxaborol-5-yl)methyleneamino]-N-methyl-7-phenyl-thieno[3,2-d]pyrimidin-4-amine], the Emax was determined as 87% and the midpoint of inhibition, the IC50, lay at 1990 nM.

The IC50 is the midpoint of a concentration-inhibition curve.
